Data as given in PMC8564765 (Journal of medicinal chemistry, 2021).

Tested on: MPO activity
Test: MR imaging of CFA-induced subcutaneous inflammation
Assay type: in vivo
Details: wild-type mice, 0.3 mmol/kg

CNC[C@H](O)[C@@H](O)[C@H](O)[C@H](O)CO.O=C([O-])CN1CCN(CC(=O)[O-])CCN(CC(=O)O)CCN(CC(=O)[O-])CC1.[Gd+3] [DOTA-Gd, gadoterate meglumine]
Course of CNR over 60 min: decreased rapidly over time
